Patent publication US8399663B2, “Salt of 1,3,5-triazine-2,4,6-triamine derivative” (Astellas Pharma Inc., priority 2009, dated 2013)

Legend:
[1] = pKa value of the compound; type: physicochemical
[2] = test system: methamphetamine-induced hyperlocomotion; test: Methamphetamine-induced hyperlocomotion model (animal model of Schizophrenia); type: in vivo, male ddY mouse; conditions: oral administration to male ddY mice
Protocol: Methamphetamine is a psychostimulant, and is known to cause symptoms that are similar to Schizophrenia by increasing the transmission in the dopaminergic neurons. The abnormal behavior produced when methamphetamine is administered to an animal is generally used as a screening method for a therapeutic drug for Schizophrenia (Oka et al., 1993, J. Pharmacol. Exp. Ther., 264:158-165, herein incorporated by reference). That is, a male ddY mouse was placed in an activity monitoring apparatus, and after 30 min, methamphetamine was administered. Immediately after administering methamphetamine, the mouse was returned to the monitoring apparatus, and the activity for 1 hour from immediately after the return was measured. For the measurement of the activity, a Supermex sensor manufactured by Muromachi Kikai Co., Ltd. was used. A solvent, or a diluted solution obtained by diluting each of the test compounds with a solvent at multiple concentrations was orally administered to mice in a group. As the solvent, a 0.5% aqueous methyl cellulose solution was used. The statistical analysis was carried out between the group administered with the solvent and the group administered with the drug, using a Dunnett's test.

In the case of `Fc1ccc(Nc2nc(NCc3ncccn3)nc(Nc3ccccc3)n2)cc1` [compound A, N-(4-fluorophenyl)-N′-phenyl-N″-(pyrimidin-2-ylmethyl)-1,3,5-triazine-2,4,6-triamine], the pKa [1] is reported as 3.9 and the “methamphetamine-induced hyperlocomotion inhibitory action” value [2] is reported as “inhibited the methamphetamine-induced hyperlocomotion”.

With `Fc1ccc(Nc2nc(NCc3ncccn3)nc(Nc3ccc(F)cc3)n2)cc1` [compound B, N,N′-bis(4-fluorophenyl)-N″-(pyrimidin-2-ylmethyl)-1,3,5-triazine-2,4,6-triamine] the “methamphetamine-induced hyperlocomotion inhibitory action” value [2] was “inhibited the methamphetamine-induced hyperlocomotion”.
